Experimental data published in ChEMBL document CHEMBL1909046, “DrugMatrix in vitro pharmacology data”.

Legend:
Cytochrome P450 2D6 = Cytochrome P450 2D6 (Homo sapiens, UniProt P10635); conditions: bti-tn-5b1-4; also: in other assays of this panel Not Active means under 50% inhibition at 10 µM
[1] = target: 5-hydroxytryptamine receptor 1B (Rattus norvegicus, UniProt P28564); assay type: cell membranes, Wistar, Cerebral cortex, Membrane; also: in other assays of this panel Not Active means under 50% inhibition at 10 µM
Sequence of 5-hydroxytryptamine receptor 1B (P28564 whole entry): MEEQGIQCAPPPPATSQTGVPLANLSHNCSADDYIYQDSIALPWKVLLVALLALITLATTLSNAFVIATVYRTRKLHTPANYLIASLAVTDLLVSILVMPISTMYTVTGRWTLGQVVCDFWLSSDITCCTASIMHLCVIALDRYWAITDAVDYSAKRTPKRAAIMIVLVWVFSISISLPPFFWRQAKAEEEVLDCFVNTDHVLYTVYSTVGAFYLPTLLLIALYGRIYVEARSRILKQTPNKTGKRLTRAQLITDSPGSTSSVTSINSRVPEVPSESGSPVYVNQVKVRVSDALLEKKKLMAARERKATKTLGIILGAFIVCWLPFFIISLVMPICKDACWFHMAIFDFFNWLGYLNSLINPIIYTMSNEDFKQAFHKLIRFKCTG

[2] = DRUGMATRIX: Glutamate, AMPA radioligand binding (ligand: [3H] AMPA); assay type: cell membranes, Rattus norvegicus, Wistar, Cerebral cortex, Membrane; conditions: Not Active = under 50% inhibition at 10 µM
[3] = target: Vascular endothelial growth factor receptor 1 (Homo sapiens, UniProt P17948); assay type: cell-based; conditions: huvec; also: in other assays of this panel Not Active means under 50% inhibition at 10 µM
Sequence of Vascular endothelial growth factor receptor 1 (P17948 whole entry): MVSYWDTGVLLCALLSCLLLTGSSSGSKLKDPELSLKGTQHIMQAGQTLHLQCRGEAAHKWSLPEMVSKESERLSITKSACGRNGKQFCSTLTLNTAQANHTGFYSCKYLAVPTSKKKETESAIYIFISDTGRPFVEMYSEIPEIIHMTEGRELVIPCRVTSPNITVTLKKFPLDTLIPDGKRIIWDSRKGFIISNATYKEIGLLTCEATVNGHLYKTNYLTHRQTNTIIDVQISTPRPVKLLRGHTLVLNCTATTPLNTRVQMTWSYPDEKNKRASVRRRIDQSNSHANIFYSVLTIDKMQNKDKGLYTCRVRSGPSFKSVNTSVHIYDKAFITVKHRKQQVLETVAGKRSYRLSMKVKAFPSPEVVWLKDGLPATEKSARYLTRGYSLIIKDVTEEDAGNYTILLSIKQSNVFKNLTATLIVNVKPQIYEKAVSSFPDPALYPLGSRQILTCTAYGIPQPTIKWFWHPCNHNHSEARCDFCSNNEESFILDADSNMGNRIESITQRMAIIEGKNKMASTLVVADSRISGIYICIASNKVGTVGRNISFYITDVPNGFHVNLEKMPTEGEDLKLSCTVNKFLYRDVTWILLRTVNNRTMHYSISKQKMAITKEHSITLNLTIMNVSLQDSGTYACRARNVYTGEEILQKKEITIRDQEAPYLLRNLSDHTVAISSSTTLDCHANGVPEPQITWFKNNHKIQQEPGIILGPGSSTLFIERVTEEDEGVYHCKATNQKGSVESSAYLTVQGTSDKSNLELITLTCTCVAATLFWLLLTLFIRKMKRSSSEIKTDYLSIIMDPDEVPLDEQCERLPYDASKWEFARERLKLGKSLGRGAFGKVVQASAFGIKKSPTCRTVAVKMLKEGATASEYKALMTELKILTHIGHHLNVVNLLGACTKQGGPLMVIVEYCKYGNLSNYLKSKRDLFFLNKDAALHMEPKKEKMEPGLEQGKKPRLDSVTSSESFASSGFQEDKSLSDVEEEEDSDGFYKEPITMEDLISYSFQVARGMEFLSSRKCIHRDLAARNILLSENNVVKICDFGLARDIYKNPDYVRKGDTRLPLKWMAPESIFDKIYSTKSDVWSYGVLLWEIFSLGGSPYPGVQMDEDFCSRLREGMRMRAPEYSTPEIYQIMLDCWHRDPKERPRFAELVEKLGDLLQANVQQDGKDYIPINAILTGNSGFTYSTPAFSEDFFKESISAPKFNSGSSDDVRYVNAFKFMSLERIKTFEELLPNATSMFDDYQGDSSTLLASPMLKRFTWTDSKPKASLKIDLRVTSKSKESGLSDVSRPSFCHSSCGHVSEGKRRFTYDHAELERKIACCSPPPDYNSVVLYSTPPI

[4] = target: cGMP-specific 3',5'-cyclic phosphodiesterase (Homo sapiens, UniProt O76074); test: DRUGMATRIX: Phosphodiesterase PDE5 enzyme inhibition (substrate: [3H]cGMP + cGMP); assay type: tissue-based, Platelet; conditions: platelet; Not Active = under 50% inhibition at 10 µM
[5] = target: T1, 3-hydroxy-3-methylglutaryl-coenzyme A reductase (Homo sapiens, UniProt P04035); set-up: species or system Escherichia coli;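 also: enzyme inhibition assay of HMG-CoA reductase using radiolabeled [14C]HMG-CoA as substrate; in other assays of this panel Not Active means under 50% inhibition at 10 µM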
T1 sequence (P04035 whole entry): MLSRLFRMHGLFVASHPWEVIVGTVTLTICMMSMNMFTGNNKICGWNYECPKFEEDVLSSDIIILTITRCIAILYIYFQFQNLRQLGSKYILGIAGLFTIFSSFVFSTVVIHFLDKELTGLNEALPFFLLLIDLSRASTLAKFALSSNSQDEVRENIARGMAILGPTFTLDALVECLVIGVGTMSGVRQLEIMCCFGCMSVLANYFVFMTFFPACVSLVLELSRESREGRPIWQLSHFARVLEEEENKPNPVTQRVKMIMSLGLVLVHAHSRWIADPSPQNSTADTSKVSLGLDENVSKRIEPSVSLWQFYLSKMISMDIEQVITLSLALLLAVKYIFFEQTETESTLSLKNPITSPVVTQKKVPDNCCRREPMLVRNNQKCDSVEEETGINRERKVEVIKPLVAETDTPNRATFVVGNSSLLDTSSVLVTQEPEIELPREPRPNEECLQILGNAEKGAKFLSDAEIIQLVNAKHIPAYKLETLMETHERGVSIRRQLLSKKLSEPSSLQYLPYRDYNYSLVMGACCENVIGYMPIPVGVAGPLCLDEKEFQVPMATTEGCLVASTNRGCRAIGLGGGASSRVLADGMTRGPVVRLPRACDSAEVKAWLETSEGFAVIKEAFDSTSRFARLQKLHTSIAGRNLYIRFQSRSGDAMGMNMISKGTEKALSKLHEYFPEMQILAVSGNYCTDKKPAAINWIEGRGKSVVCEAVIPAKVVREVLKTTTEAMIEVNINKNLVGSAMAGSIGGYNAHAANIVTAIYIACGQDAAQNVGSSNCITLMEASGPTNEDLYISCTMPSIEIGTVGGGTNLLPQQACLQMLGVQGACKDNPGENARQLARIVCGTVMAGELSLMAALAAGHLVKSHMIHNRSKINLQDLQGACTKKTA

[6] = target: Beta-1 adrenergic receptor (Homo sapiens, UniProt P08588); test: DRUGMATRIX: Adrenergic beta1 radioligand binding (ligand: [125I] Cyanopindolol); assay type: cell membranes, CHO-K1, Membrane; conditions: cho-k1; Not Active = under 50% inhibition at 10 µM
Sequence of Beta-1 adrenergic receptor (P08588 whole entry): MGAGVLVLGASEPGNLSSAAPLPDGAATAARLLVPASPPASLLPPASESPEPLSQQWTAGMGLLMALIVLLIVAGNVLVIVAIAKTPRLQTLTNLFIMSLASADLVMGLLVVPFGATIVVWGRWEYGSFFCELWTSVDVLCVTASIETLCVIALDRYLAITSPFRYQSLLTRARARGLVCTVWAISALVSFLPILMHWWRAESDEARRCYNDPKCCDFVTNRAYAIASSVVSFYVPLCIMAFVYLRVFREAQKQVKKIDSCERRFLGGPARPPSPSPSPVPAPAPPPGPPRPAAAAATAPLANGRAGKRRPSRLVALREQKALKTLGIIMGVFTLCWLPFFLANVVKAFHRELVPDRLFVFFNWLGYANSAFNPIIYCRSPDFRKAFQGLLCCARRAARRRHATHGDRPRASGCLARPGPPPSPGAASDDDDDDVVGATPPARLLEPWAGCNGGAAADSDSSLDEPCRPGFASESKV

Sequence of Cytochrome P450 2D6 (P10635 whole entry): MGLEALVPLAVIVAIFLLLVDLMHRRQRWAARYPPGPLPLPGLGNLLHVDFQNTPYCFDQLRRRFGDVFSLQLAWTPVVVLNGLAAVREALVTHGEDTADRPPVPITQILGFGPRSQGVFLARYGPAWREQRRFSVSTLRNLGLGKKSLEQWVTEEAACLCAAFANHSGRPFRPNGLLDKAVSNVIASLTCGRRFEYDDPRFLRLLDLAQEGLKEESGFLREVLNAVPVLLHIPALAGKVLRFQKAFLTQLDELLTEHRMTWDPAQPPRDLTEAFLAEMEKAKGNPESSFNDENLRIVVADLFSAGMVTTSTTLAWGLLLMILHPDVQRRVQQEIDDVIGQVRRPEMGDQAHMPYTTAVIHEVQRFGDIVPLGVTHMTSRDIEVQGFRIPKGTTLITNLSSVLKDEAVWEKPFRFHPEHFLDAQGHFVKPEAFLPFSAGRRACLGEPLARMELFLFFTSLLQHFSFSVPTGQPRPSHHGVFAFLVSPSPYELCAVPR

CCN(CC)CCCC(C)Nc1c2ccc(Cl)cc2nc2ccc(OC)cc12 (stereo not given) [QUINACRINE]
Not Active: IC50 (Cytochrome P450 2D6) | Ki (Cytochrome P450 2D6) | IC50 [1] | IC50 [2] | Ki [2] | IC50 [3] | IC50 [4] | IC50 [5] | IC50 [6]

C[C@]12C=CC(=O)C=C1CC[C@H]1[C@@H]3C[C@@H](O)[C@](O)(C(=O)CO)[C@@]3(C)C[C@H](O)[C@@]12F [TRIAMCINOLONE]
Not Active: IC50 (Cytochrome P450 2D6) | Ki (Cytochrome P450 2D6) | IC50 [1] | IC50 [2] | Ki [2] | IC50 [3] | IC50 [4] | IC50 [5] | IC50 [6]

CCN(C(C)=O)c1cccc(-c2ccnc3c(C#N)cnn23)c1 [ZALEPLON]
Not Active: IC50 (Cytochrome P450 2D6) | Ki (Cytochrome P450 2D6) | IC50 [1] | IC50 [2] | Ki [2] | IC50 [3] | IC50 [4] | IC50 [5] | IC50 [6]

COBALTOUS CHLORIDE
Not Active: IC50 (Cytochrome P450 2D6) | Ki (Cytochrome P450 2D6) | IC50 [1] | Ki [1] | IC50 [2] | Ki [2] | IC50 [3] | Ki [3] | IC50 [4] | Ki [4] | IC50 [5] | Ki [5] | IC50 [6] | Ki [6]

COLISTIN
Not Active: IC50 (Cytochrome P450 2D6) | Ki (Cytochrome P450 2D6) | IC50 [1] | Ki [1] | IC50 [2] | Ki [2] | IC50 [3] | Ki [3] | IC50 [4] | Ki [4] | IC50 [5] | Ki [5] | IC50 [6] | Ki [6]
